How the values were obtained:
hERG = hERG (Homo sapiens, UniProt Q12809); assay: Inhibition of hERG at 10 uM relative to control; type: toxicity
[1] = Microsomal stability in rat liver microsomes assessed as parent compound remaining at 1 uM measured upto 30 mins in presence of NADPH by LC-MS/MS analysis; type: ADME, Microsome; details: read-out: Stability
[2] = AUClast in Sprague-Dawley rat at 1 mg/kg, iv measured upto 24 hrs by LC-MS/MS analysis; type: ADME, organism-based; design: dose 1 mg/kg, time < 24 hrs, route iv; details: in vivo
[3] = AUClast in Sprague-Dawley rat at 10 mg/kg, po administered as suspension measured upto 24 hrs by LC-MS/MS analysis; type: ADME, organism-based; design: dose 10 mg/kg, time < 24 hrs, route po; details: in vivo
[4] = Clearance in Sprague-Dawley rat at 10 mg/kg, po administered as solution measured upto 24 hrs by LC-MS/MS analysis; type: ADME, organism-based; details: in vivo
[5] = Oral bioavailability in Sprague-Dawley rat at 10 mg/kg administered as solution measured upto 24 hrs by LC-MS/MS analysis; type: ADME, organism-based; details: in vivo
[6] = Effect on parathyroid hormone in overnight fasted Sprague-Dawley rat assessed as reduction in plasma PTH level at 10 mg/kg, po measured after 0.5 hrs of post treatment by sandwich ELISA analysis; type: functional; design: scale not given: the % may be the effect or the level left
[7] = Effect on parathyroid hormone in overnight fasted Sprague-Dawley rat assessed as reduction in plasma PTH level at 3 mg/kg, po measured after 4 hrs of post treatment by sandwich ELISA analysis; type: functional; design: scale not given: the % may be the effect or the level left
[8] = Effect on parathyroid hormone in overnight fasted Sprague-Dawley rat assessed as reduction in plasma PTH level at 10 mg/kg, po measured after 6 hrs of post treatment by sandwich ELISA analysis (reference value: 33%); type: functional; design: scale not given: the % may be the effect or the level left
[9] = Effect on parathyroid hormone in overnight fasted adenine diet-induced chronic kidney disease Wistar rat model plasma assessed as reduction in PTH level at 1 mg/kg, po measured after 1 hrs of post treatment by sandwich ELISA analysis; type: functional; design: scale not given: the % may be the effect or the level left
Rattus norvegicus [10] = assay: Acute effect on parathyroid hormone in overnight fasted adenine diet-induced chronic kidney disease Wistar rat model assessed as reduction in plasma PTH level at 1 mg/kg, po measured after 2 hrs of post treatment by sandwich ELISA analysis; type: functional; design: scale not given: the % may be the effect or the level left
Rattus norvegicus [11] = assay: Acute effect on parathyroid hormone in overnight fasted adenine diet-induced chronic kidney disease Wistar rat model assessed as reduction in plasma PTH level at 3 mg/kg, po measured after 2 hrs of post treatment by sandwich ELISA analysis; type: functional; design: scale not given: the % may be the effect or the level left
Rattus norvegicus [12] = assay: Acute effect on parathyroid hormone in overnight fasted adenine diet-induced chronic kidney disease Wistar rat model assessed as reduction in plasma PTH level at 10 mg/kg, po measured after 4 hrs of post treatment by sandwich ELISA analysis; type: functional; design: scale not given: the % may be the effect or the level left
Rattus norvegicus [13] = assay: Chronic effect on parathyroid hormone in overnight fasted adenine diet-induced chronic kidney disease Wistar rat model plasma assessed as reduction in plasma PTH level at 1 mg/kg, po qd measured after 27 days of post treatment by sandwich ELISA analysis; type: functional; design: scale not given: the % may be the effect or the level left; details: time 27 day
[14] = Cmax in Sprague-Dawley rat at 30 mg/kg; type: ADME, organism-based; design: dose 30 mg/kg; details: in vivo
[15] = AUC(0 to 24 hrs) in Sprague-Dawley rat at 30 mg/kg; type: ADME, organism-based; design: dose 30 mg/kg; details: in vivo
[16] = AUC(0 to 24 hrs) in Sprague-Dawley rat at 100 mg/kg; type: ADME, organism-based; design: dose 100 mg/kg; details: in vivo
[17] = Cmax in Sprague-Dawley rat at 300 mg/kg; type: ADME, organism-based; design: dose 300 mg/kg; details: in vivo
[18] = Metabolic stability in dog liver cytosol measured upto 60 mins by LC-MS/MS method; type: ADME, subcellular, Canis lupus familiaris; details: read-out: Stability
[19] = Stability in human plasma measured up to 4 hrs by LC-MS/MS method; type: ADME, cell-free; details: read-out: Stability
CYP2E1 = CYP2E1 (Homo sapiens, UniProt P05181); assay: Inhibition of CYP2E1 in human liver microsomes at 10 uM preincubated for 5 mins followed by NADPH addition by LC-MS/MS analysis relative to control; type: ADME, Microsome
[20] = Kinetic solubility of compound upto 500 uM at pH 4 measured after 16 hrs under shaking condition by UV-visible method; type: physicochemical; details: buffer, read-out: Kinetic_solubility
[21] = Kinetic solubility of compound in SIF upto 500 uM measured after 16 hrs under shaking condition by UV-visible method; type: physicochemical; details: read-out: Kinetic_solubility
[22] = Kinetic solubility of compound in 0.1N HCL upto 500 uM measured after 16 hrs under shaking condition by UV-visible method; type: physicochemical; details: read-out: Kinetic_solubility
[23] = Chemical stability of the compound at pH 9 measured after 0.5 to 4 hrs; type: physicochemical; details: buffer, time 0.5-4 hrs
[24] = Chemical stability of the compound in 0.1N HCL measured after 0.5 to 4 hrs; type: physicochemical; details: buffer; time 0.5-4 hrs
[25] = Chemical stability of the compound in FeSSIF measured after 0.5 to 4 hrs; type: physicochemical; details: simulated gi fluid; time 0.5-4 hrs
[26] = Chemical stability of the compound in SIF measured after 0.5 to 4 hrs; type: physicochemical; details: simulated gi fluid; time 0.5-4 hrs
[27] = Oral bioavailability in BALB/c mouse at 10 mg/kg measured upto 24 hrs by LC/MS-MS analysis; type: ADME, organism-based; details: in vivo
[28] = Oral bioavailability in Sprague-Dawley rat at 10 mg/kg measured upto 24 hrs by LC/MS-MS analysis; type: ADME, organism-based; details: in vivo
[29] = Oral bioavailability in Beagle dog at 5 mg/kg measured upto 24 hrs by LC/MS-MS analysis; type: ADME, organism-based, Canis lupus familiaris; details: in vivo
[30] = Oral bioavailability in cynomolgus monkey at 5 mg/kg measured upto 24 hrs by LC/MS-MS analysis; type: ADME, organism-based, Macaca fascicularis; details: in vivo
[31] = Volume of distribution at steady state in Sprague-Dawley rat at 1 mg/kg, iv measured upto 24 hrs by LC/MS-MS analysis; type: ADME, organism-based; details: in vivo, read-out: Vdss
[32] = Volume of distribution at steady state in Beagle dog at 1 mg/kg, iv measured upto 24 hrs by LC/MS-MS analysis; type: ADME, organism-based, Canis lupus familiaris; details: in vivo, read-out: Vdss
[33] = Half life in Beagle dog at 1 mg/kg, iv measured upto 24 hrs by LC/MS-MS analysis; type: ADME, organism-based, Canis lupus familiaris; details: in vivo
[34] = Tmax in cynomolgus monkey at 5 mg/kg, po measured upto 24 hrs by LC/MS-MS analysis; type: ADME, organism-based, Macaca fascicularis; details: in vivo
[35] = Cmax in Beagle dog at 5 mg/kg, po measured upto 24 hrs by LC/MS-MS analysis; type: ADME, organism-based, Canis lupus familiaris; design: dose 5 mg/kg, time < 24 hrs, route po; details: in vivo
[36] = Cmax in cynomolgus monkey at 5 mg/kg, po measured upto 24 hrs by LC/MS-MS analysis; type: ADME, organism-based, Macaca fascicularis; design: time < 24 hrs, dose 5 mg/kg, route po; details: in vivo
[37] = AUC in BALB/c mouse at 10 mg/kg, po measured upto 24 hrs by LC/MS-MS analysis; type: ADME, organism-based; design: time < 24 hrs, dose 10 mg/kg, route po; details: in vivo
[38] = AUC in Sprague-Dawley rat at 10 mg/kg, po measured upto 24 hrs by LC/MS-MS analysis; type: ADME, organism-based; design: time < 24 hrs, dose 10 mg/kg, route po; details: in vivo
[39] = AUC in Beagle dog at 5 mg/kg, po measured upto 24 hrs by LC/MS-MS analysis; type: ADME, organism-based, Canis lupus familiaris; design: dose 5 mg/kg, time < 24 hrs, route po; details: in vivo
[40] = AUC in mouse at 50 mg/kg per day, po via gavage administered for 13 weeks; type: ADME, organism-based; design: dose 50 mg/kg, time 13 weeks, route po; details: in vivo
[41] = Cmax in human at 25 mg/kg, po administered as multiple dose on day 8; type: ADME, organism-based; design: dose 25 mg/kg, route po; details: in vivo
[42] = Genotoxicity in Salmonella typhimurium by Ames test; type: toxicity; details: salmonella enterica subsp. enterica serovar typhimurium
[43] = molecular target: Delta-type opioid receptor (Homo sapiens) (UniProt P41143); assay: Inhibition of human recombinant DOP receptor at 10 uM relative to control
Delta-type opioid receptor (Homo sapiens), sequence (P41143 whole entry): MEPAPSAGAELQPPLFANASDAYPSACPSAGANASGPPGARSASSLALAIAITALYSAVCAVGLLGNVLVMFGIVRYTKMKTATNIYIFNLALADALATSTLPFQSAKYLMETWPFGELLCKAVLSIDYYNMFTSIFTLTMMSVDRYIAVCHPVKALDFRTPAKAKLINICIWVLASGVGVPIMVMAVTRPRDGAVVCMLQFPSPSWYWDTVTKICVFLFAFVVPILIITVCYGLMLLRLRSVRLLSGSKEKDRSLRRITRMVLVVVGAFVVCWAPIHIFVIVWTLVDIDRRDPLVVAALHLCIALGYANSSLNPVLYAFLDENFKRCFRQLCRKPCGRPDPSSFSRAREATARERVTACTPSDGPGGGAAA

CYP2E1, sequence (P05181 whole entry): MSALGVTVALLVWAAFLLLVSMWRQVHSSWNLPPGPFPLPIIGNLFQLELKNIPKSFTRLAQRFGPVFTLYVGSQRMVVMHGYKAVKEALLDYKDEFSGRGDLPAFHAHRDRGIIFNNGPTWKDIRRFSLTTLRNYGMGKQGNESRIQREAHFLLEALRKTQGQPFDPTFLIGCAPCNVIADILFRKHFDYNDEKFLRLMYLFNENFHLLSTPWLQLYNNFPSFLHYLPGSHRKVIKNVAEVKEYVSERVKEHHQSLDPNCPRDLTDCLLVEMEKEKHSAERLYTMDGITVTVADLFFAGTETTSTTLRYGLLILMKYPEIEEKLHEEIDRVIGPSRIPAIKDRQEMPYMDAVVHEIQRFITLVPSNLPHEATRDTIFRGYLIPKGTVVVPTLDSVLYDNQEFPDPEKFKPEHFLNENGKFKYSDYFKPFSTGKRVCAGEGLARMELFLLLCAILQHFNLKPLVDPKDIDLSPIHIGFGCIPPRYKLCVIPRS
hERG, sequence (Q12809 whole entry): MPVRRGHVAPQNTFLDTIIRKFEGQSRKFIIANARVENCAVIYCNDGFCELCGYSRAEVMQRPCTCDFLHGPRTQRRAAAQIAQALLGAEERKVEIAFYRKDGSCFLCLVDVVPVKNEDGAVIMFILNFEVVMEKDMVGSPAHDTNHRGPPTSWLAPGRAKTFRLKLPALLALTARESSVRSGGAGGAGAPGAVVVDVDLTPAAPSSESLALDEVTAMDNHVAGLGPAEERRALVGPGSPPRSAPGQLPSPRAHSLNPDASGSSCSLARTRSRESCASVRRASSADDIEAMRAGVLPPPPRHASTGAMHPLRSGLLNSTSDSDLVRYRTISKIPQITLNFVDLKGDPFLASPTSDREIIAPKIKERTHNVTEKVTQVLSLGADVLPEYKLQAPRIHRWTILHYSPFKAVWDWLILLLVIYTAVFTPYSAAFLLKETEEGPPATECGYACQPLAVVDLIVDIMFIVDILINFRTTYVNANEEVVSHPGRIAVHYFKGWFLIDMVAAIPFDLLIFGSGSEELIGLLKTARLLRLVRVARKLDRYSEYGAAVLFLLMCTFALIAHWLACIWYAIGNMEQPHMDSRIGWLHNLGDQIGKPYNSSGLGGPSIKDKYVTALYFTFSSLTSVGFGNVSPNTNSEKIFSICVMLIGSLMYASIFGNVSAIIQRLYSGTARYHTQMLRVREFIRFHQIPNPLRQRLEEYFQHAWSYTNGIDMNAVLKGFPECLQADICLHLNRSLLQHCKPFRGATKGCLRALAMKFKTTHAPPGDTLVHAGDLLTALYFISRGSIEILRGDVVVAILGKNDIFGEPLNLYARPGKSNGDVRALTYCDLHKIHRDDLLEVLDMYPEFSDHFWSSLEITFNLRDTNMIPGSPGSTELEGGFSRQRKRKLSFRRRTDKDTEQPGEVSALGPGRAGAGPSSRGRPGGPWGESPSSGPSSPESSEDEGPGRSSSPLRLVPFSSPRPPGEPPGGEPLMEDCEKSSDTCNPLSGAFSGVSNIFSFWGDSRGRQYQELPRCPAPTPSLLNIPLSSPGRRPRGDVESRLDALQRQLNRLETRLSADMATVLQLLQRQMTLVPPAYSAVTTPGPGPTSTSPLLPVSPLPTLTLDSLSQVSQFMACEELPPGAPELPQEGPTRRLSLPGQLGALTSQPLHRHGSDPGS

Cc1ccc([C@@H]2C[C@H](CN[C@H](C)c3cccc4ccccc34)Oc3ccccc32)cc1C(=O)O.Cl
inhibition at 10 µM (hERG): 4% | remaining at 0.5 h, 1 µM [1]: 77% | AUC(0-t) at 24 h [2]: 7 µM·h | AUC(0-t) at 24 h [3]: 23 µM·h | CL/F [4]: 6 mL/min/kg | bioavailability [5]: 99% | Activity [6]: 100% | Activity [7]: 74% | Activity [8]: 45% | Activity [9]: 95% | Activity (Rattus norvegicus [10]): 95% | Activity (Rattus norvegicus [11]): 96% | Activity (Rattus norvegicus [12]): 97% | Activity (Rattus norvegicus [13]): 65% | Cmax [14]: 24 µM | AUC(0-t) [15]: 116 µM·h | AUC(0-t) [16]: 426 µM·h | Cmax [17]: 72 µM | remaining at 1 h [18]: > 80% | remaining at 4 h [19]: > 80% | inhibition at 10 µM (CYP2E1): 0% | solubility kinetic at 16 h, 500 µM [20]: > 300 µM | solubility kinetic at 16 h, 500 µM [21]: > 300 µM | solubility kinetic at 16 h, 500 µM [22]: > 200 µM | Stability [23]: Stable | Stability [24]: Stable | Stability [25]: Stable | Stability [26]: Stable | bioavailability [27]: 100% | bioavailability [28]: 99% | bioavailability [29]: 79% | bioavailability [30]: 100% | Vd [31]: 1 L/kg | Vd [32]: 0.7 L/kg | half-life [33]: 5 h | Tmax [34]: 1.7 h | Cmax [35]: 11 µM | Cmax [36]: 0.4 µM | AUC at 24 h [37]: 171 µM·h | AUC at 24 h [38]: 71 µM·h | AUC at 24 h [39]: 63 µM·h | AUC at 2184 h [40]: 321 µg·h/mL | Cmax [41]: 463 ng/mL | Activity [42]: Non-Toxic | inhibition [43]: > 50%
